Assay: xn = mol fraction of the nth substance listed
Conditions: Fluid (supercritical or subcritical phases), Vibrating tube method

c1ccc2ccccc2c1 [naphthalene] + O=C=O
Conditions | mass density [kg/m3]
328.08 K, 11734 kPa, x1 = 0.0065 | 526.75
328.08 K, 11815 kPa, x1 = 0.0065 | 533.03
328.08 K, 11937 kPa, x1 = 0.0065 | 541.87
328.08 K, 12028 kPa, x1 = 0.0065 | 548.44
328.08 K, 12127 kPa, x1 = 0.0065 | 555.07
328.08 K, 12334 kPa, x1 = 0.0065 | 568.49
328.08 K, 12646 kPa, x1 = 0.0065 | 586.46
328.08 K, 13208 kPa, x1 = 0.0065 | 613.74
328.08 K, 13824 kPa, x1 = 0.0065 | 638.32
328.08 K, 14520 kPa, x1 = 0.0065 | 661.29
328.08 K, 15410 kPa, x1 = 0.0065 | 685.64
328.08 K, 16319 kPa, x1 = 0.0065 | 706.24
328.08 K, 17226 kPa, x1 = 0.0065 | 723.77
328.08 K, 18128 kPa, x1 = 0.0065 | 739.05
328.08 K, 19046 kPa, x1 = 0.0065 | 752.91
328.08 K, 20020 kPa, x1 = 0.0065 | 766.16
328.08 K, 21002 kPa, x1 = 0.0065 | 778.22
328.08 K, 21995 kPa, x1 = 0.0065 | 789.31
328.08 K, 22871 kPa, x1 = 0.0065 | 798.48
328.08 K, 23424 kPa, x1 = 0.0065 | 803.93
328.1 K, 10952 kPa, x1 = 0.0038 | 442.37
328.1 K, 11010 kPa, x1 = 0.0038 | 448.13
328.1 K, 11054 kPa, x1 = 0.0038 | 452.8
328.1 K, 11219 kPa, x1 = 0.0038 | 468.8
328.1 K, 11363 kPa, x1 = 0.0038 | 482.43
328.1 K, 11517 kPa, x1 = 0.0038 | 495.77
328.1 K, 11649 kPa, x1 = 0.0038 | 507.25
328.1 K, 11832 kPa, x1 = 0.0038 | 521.74
328.1 K, 11972 kPa, x1 = 0.0038 | 532.31
328.1 K, 12088 kPa, x1 = 0.0038 | 540.71
328.1 K, 12322 kPa, x1 = 0.0038 | 556.51
328.1 K, 12538 kPa, x1 = 0.0038 | 569.79
328.1 K, 12706 kPa, x1 = 0.0038 | 579.47
328.1 K, 12941 kPa, x1 = 0.0038 | 591.84
328.1 K, 13117 kPa, x1 = 0.0038 | 600.49
328.1 K, 13376 kPa, x1 = 0.0038 | 612.23
328.1 K, 13618 kPa, x1 = 0.0038 | 622.37
328.1 K, 13925 kPa, x1 = 0.0038 | 634.21
328.1 K, 14240 kPa, x1 = 0.0038 | 645.33
328.1 K, 14511 kPa, x1 = 0.0038 | 654.12
328.1 K, 14850 kPa, x1 = 0.0038 | 664.35
328.1 K, 15299 kPa, x1 = 0.0038 | 676.78
328.1 K, 15816 kPa, x1 = 0.0038 | 689.62
328.1 K, 16314 kPa, x1 = 0.0038 | 700.83
328.1 K, 16845 kPa, x1 = 0.0038 | 711.78
328.1 K, 17403 kPa, x1 = 0.0038 | 722.35
328.1 K, 18014 kPa, x1 = 0.0038 | 732.96
328.1 K, 18738 kPa, x1 = 0.0038 | 744.46
328.1 K, 19499 kPa, x1 = 0.0038 | 755.49
328.1 K, 20377 kPa, x1 = 0.0038 | 767.2
328.1 K, 21134 kPa, x1 = 0.0038 | 776.5
328.1 K, 22132 kPa, x1 = 0.0038 | 787.85
328.1 K, 23017 kPa, x1 = 0.0038 | 797.14
328.1 K, 24029 kPa, x1 = 0.0038 | 806.95
328.1 K, 25024 kPa, x1 = 0.0038 | 815.98
328.11 K, 15028 kPa, x1 = 0.0214 | 725.95
328.11 K, 15923 kPa, x1 = 0.0214 | 742.34
328.11 K, 17035 kPa, x1 = 0.0214 | 759.59
328.11 K, 18008 kPa, x1 = 0.0214 | 773.1
328.11 K, 19015 kPa, x1 = 0.0214 | 785.68
328.11 K, 20044 kPa, x1 = 0.0214 | 797.24
328.11 K, 21022 kPa, x1 = 0.0214 | 807.22
328.11 K, 22000 kPa, x1 = 0.0214 | 816.43
328.11 K, 23011 kPa, x1 = 0.0214 | 825.23
328.11 K, 24023 kPa, x1 = 0.0214 | 833.49
332.93 K, 18103 kPa, x1 = 0.0198 | 740.17
332.93 K, 19004 kPa, x1 = 0.0198 | 753.43
332.93 K, 20061 kPa, x1 = 0.0198 | 767.37
332.93 K, 21067 kPa, x1 = 0.0198 | 779.34
332.93 K, 22050 kPa, x1 = 0.0198 | 789.99
332.93 K, 23026 kPa, x1 = 0.0198 | 799.71
332.93 K, 23949 kPa, x1 = 0.0198 | 808.29
332.93 K, 24971 kPa, x1 = 0.0198 | 817.26
332.95 K, 12055 kPa, x1 = 0.0049 | 468.83
332.95 K, 13050 kPa, x1 = 0.0049 | 535.86
332.95 K, 14011 kPa, x1 = 0.0049 | 584.76
332.95 K, 14979 kPa, x1 = 0.0049 | 622.27
332.95 K, 16026 kPa, x1 = 0.0049 | 654.27
332.95 K, 17024 kPa, x1 = 0.0049 | 679.08
332.95 K, 18017 kPa, x1 = 0.0049 | 699.78
332.95 K, 18994 kPa, x1 = 0.0049 | 717.43
332.95 K, 20008 kPa, x1 = 0.0049 | 733.55
332.95 K, 21018 kPa, x1 = 0.0049 | 747.87
332.95 K, 22004 kPa, x1 = 0.0049 | 760.51
332.95 K, 23003 kPa, x1 = 0.0049 | 772.24
332.95 K, 24035 kPa, x1 = 0.0049 | 783.38
332.96 K, 13066 kPa, x1 = 0.0093 | 562.4
332.96 K, 14010 kPa, x1 = 0.0093 | 607.19
332.96 K, 14033 kPa, x1 = 0.0144 | 623.67
332.96 K, 15035 kPa, x1 = 0.0144 | 657.01
332.96 K, 15044 kPa, x1 = 0.0093 | 643.85
332.96 K, 15076 kPa, x1 = 0.0173 | 670.77
332.96 K, 16046 kPa, x1 = 0.0093 | 671.79
332.96 K, 16056 kPa, x1 = 0.0144 | 683.98
332.96 K, 16081 kPa, x1 = 0.0173 | 695.5
332.96 K, 17019 kPa, x1 = 0.0144 | 704.86
332.96 K, 17024 kPa, x1 = 0.0173 | 714.84
332.96 K, 17026 kPa, x1 = 0.0093 | 694.34
332.96 K, 17996 kPa, x1 = 0.0173 | 731.97
332.96 K, 18009 kPa, x1 = 0.0093 | 713.47
332.96 K, 18013 kPa, x1 = 0.0144 | 723.3
332.96 K, 18019 kPa, x1 = 0.0235 | 741.5
332.96 K, 19018 kPa, x1 = 0.0235 | 756.06
332.96 K, 19028 kPa, x1 = 0.0144 | 739.71
332.96 K, 19030 kPa, x1 = 0.0093 | 730.7
332.96 K, 19068 kPa, x1 = 0.0173 | 748.38
332.96 K, 19996 kPa, x1 = 0.0173 | 761.05
332.96 K, 20018 kPa, x1 = 0.0144 | 753.83
332.96 K, 20030 kPa, x1 = 0.0093 | 745.57
332.96 K, 20031 kPa, x1 = 0.0235 | 769.21
332.96 K, 20990 kPa, x1 = 0.0144 | 766.28
332.96 K, 21000 kPa, x1 = 0.0235 | 780.59
332.96 K, 21004 kPa, x1 = 0.0093 | 758.59
332.96 K, 21018 kPa, x1 = 0.0173 | 773.69
332.96 K, 21972 kPa, x1 = 0.0235 | 791.04
332.96 K, 21996 kPa, x1 = 0.0173 | 784.65
332.96 K, 22030 kPa, x1 = 0.0144 | 778.43
332.96 K, 22033 kPa, x1 = 0.0093 | 771.07
332.96 K, 22991 kPa, x1 = 0.0173 | 794.89
332.96 K, 22996 kPa, x1 = 0.0235 | 801.19
332.96 K, 23002 kPa, x1 = 0.0093 | 781.81
332.96 K, 23017 kPa, x1 = 0.0144 | 789
332.96 K, 23986 kPa, x1 = 0.0235 | 810.27
332.96 K, 23990 kPa, x1 = 0.0093 | 791.9
332.96 K, 23999 kPa, x1 = 0.0144 | 798.72
332.96 K, 24019 kPa, x1 = 0.0173 | 804.7
332.96 K, 24677 kPa, x1 = 0.0173 | 810.61
332.96 K, 24809 kPa, x1 = 0.0235 | 817.39
332.96 K, 24940 kPa, x1 = 0.0144 | 807.41
333 K, 12451 kPa, x1 = 0.0065 | 503.55
333 K, 13033 kPa, x1 = 0.0065 | 540.53
333 K, 13760 kPa, x1 = 0.0065 | 578.33
333 K, 14541 kPa, x1 = 0.0065 | 610.99
333 K, 15426 kPa, x1 = 0.0065 | 640.78
333 K, 16333 kPa, x1 = 0.0065 | 665.58
333 K, 17231 kPa, x1 = 0.0065 | 686.41
333 K, 18146 kPa, x1 = 0.0065 | 704.71
333 K, 19018 kPa, x1 = 0.0065 | 720.04
333 K, 20017 kPa, x1 = 0.0065 | 735.62
333 K, 21002 kPa, x1 = 0.0065 | 749.43
333 K, 22012 kPa, x1 = 0.0065 | 762.16
333 K, 23025 kPa, x1 = 0.0065 | 773.85
333 K, 24004 kPa, x1 = 0.0065 | 784.3
333 K, 25022 kPa, x1 = 0.0065 | 794.34
333.02 K, 12620 kPa, x1 = 0.0038 | 505.57
333.02 K, 12810 kPa, x1 = 0.0038 | 517.8
333.02 K, 12997 kPa, x1 = 0.0038 | 529.34
333.02 K, 13183 kPa, x1 = 0.0038 | 540.11
333.02 K, 13406 kPa, x1 = 0.0038 | 552.35
333.02 K, 13640 kPa, x1 = 0.0038 | 564.51
333.02 K, 13893 kPa, x1 = 0.0038 | 576.62
333.02 K, 14134 kPa, x1 = 0.0038 | 587.16
333.02 K, 14390 kPa, x1 = 0.0038 | 597.75
333.02 K, 14768 kPa, x1 = 0.0038 | 612.29
333.02 K, 15159 kPa, x1 = 0.0038 | 625.81
333.02 K, 15535 kPa, x1 = 0.0038 | 637.78
333.02 K, 16027 kPa, x1 = 0.0038 | 652.03
333.02 K, 16469 kPa, x1 = 0.0038 | 663.57
333.02 K, 17018 kPa, x1 = 0.0038 | 676.71
333.02 K, 17622 kPa, x1 = 0.0038 | 689.78
333.02 K, 18197 kPa, x1 = 0.0038 | 701.13
333.02 K, 18835 kPa, x1 = 0.0038 | 712.75
333.02 K, 19606 kPa, x1 = 0.0038 | 725.55
333.02 K, 20350 kPa, x1 = 0.0038 | 736.76
333.02 K, 21107 kPa, x1 = 0.0038 | 747.32
333.02 K, 22018 kPa, x1 = 0.0038 | 758.99
333.02 K, 22977 kPa, x1 = 0.0038 | 770.32
333.02 K, 23992 kPa, x1 = 0.0038 | 781.31
333.02 K, 25039 kPa, x1 = 0.0038 | 791.79

Reference: the NIST ThermoML archive (doi:10.1016/j.fluid.2005.06.010)
